Measurements reported in patent US20050197350A1, “Novel quinoline, tetrahydroquinazoline, and pyrimidine derivatives and methods of treatment related to the use thereof” (TAISHO PHARMACEUTICAL CO., LTD., priority 2003, published 2005).
Counter-ions that a name gives are not always drawn.

Target: MCH receptor (Homo sapiens, UniProt Q99705)
Assay: High throughput functional screening FLIPR/FDSS6000 (intracellular Ca2+ evoked by MCH)
Format: cell-based
Conditions: FLIPR/FDSS, antagonist activity vs 50 nM MCH; class by percent of control at 10^−7 M or IC50; table after the classification; read-out: class
Method in brief: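 For antagonist testing, compound-treated cells (30 min, 37 °C) were stimulated with 50 nM MCH and intracellular Ca2+ followed by Fluo4 fluorescence on FLIPR/FDSS6000. Receptor was a constitutively active, non-endogenous MCH receptor; dye loading 4 μM Fluo4-AM, 1 h, 37 °C.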

`Cc1cc(N[C@H]2CC[C@@H](NC(=O)c3cc(F)cc(Cl)c3)CC2)nc2ccccc12` [Example 3179, 3-Chloro-5-fluoro-N-[cis-4-(4-methyl-quinolin-2-ylamino)-cyclohexyl]-benzamide hydrochloride] and `Cc1cc(N[C@H]2CC[C@@H](NC(=O)c3cc(F)c(F)c(F)c3)CC2)nc2ccccc12` [Example 3180, 3,4,5-Trifluoro-N-[cis-4-(4-methyl-quinolin-2-ylamino)-cyclohexyl]-benzamide hydrochloride] cannot be ordered by IC50: under 50 nM for the first, under 50 nM for the second.

`Cc1cc(N[C@H]2CC[C@@H](NC(=O)c3ccccn3)CC2)nc2ccccc12` [Example 3181, Pyridine-2-carboxylic acid [cis-4-(4-methyl-quinolin-2-ylamino)-cyclohexyl]-amide hydrochloride] and `Cc1cc(N[C@H]2CC[C@@H](NC(=O)c3cc(Cl)ccn3)CC2)nc2ccccc12` [Example 3184, 4-Chloro-pyridine-2-carboxylic acid [cis-4-(4-methyl-quinolin-2-ylamino)-cyclohexyl]-amide hydrochloride] fall in the same range of IC50: 50 to 200 nM for the first, 50 to 200 nM for the second.

`Cc1cc(N[C@H]2CC[C@@H](NC(=O)c3cccnc3)CC2)nc2ccccc12` [Example 3182, N-[cis-4-(4-Methyl-quinolin-2-ylamino)-cyclohexyl]-nicotinamide hydrochloride] and `Cc1cc(N[C@H]2CC[C@@H](NC(=O)c3ccncc3)CC2)nc2ccccc12` [Example 3183, N-[cis-4-(4-Methyl-quinolin-2-ylamino)-cyclohexyl]-isonicotinamide hydrochloride] cannot be ordered by IC50: over 200 nM for the first, over 200 nM for the second.

Compared with `Cc1cc(N[C@H]2CC[C@@H](NC(=O)c3cncc(Br)c3)CC2)nc2ccccc12` [Example 3185, 5-Bromo-N-[cis-4-(4-methyl-quinolin-2-ylamino)-cyclohexyl]-nicotinamide dihydrochloride], `Cc1cc(N[C@H]2CC[C@@H](NC(=O)c3ccc(C(F)(F)F)nc3)CC2)nc2ccccc12` [Example 3186, N-[cis-4-(4-Methyl-quinolin-2-ylamino)-cyclohexyl]-6-trifluoromethyl-nicotinamide hydrochloride] is higher in IC50: under 50 nM for the first, 50 to 200 nM for the second.

First: Cc1cc(N[C@H]2CC[C@@H](NC(=O)c3ccc(-n4ccnc4)nc3)CC2)nc2ccccc12 [Example 3187, 6-Imidazol-1-yl-N-[cis-4-(4-methyl-quinolin-2-ylamino)-cyclohexyl]-nicotinamide dihydrochloride]
Second: CN(C)c1cc(N[C@H]2CC[C@@H](NC(=O)c3ccc(F)c(F)c3)CC2)nc2ccccc12 [Example 3188, N-[cis-4-(4-Dimethylamino-quinolin-2-ylamino)-cyclohexyl]-3,4-difluoro-benzamide hydrochloride]
The IC50 of the first is higher: over 200 nM for the first, under 50 nM for the second. The second is the more potent here.

`CN(C)c1cc(N[C@H]2CC[C@@H](NC(=O)c3csc([N+](=O)[O-])c3)CC2)nc2ccccc12` [Example 3189, 5-Nitro-thiophene-3-carboxylic acid [cis-4-(4-dimethylamino-quinolin-2-ylamino)-cyclohexyl]-amide hydrochloride] and `CN(C)c1ccnc(N[C@H]2CC[C@@H](NC(=O)c3csc([N+](=O)[O-])c3)CC2)n1` [Example 3198, 5-Nitro-thiophene-3-carboxylic acid [cis-4-(4-dimethylamino-pyrimidine-2-ylamino)-cyclohexyl]-amide hydrochloride] cannot be ordered by IC50: under 50 nM for the first, under 50 nM for the second.

`CN(C)c1cc(N[C@H]2CC[C@@H](CNC(=O)c3ccc(F)c(F)c3)CC2)nc2ccccc12` [Example 3190, N-[cis-4-(4-Dimethylamino-quinolin-2-ylamino)-cyclohexylmethyl]-3,4-difluoro-benzamide hydrochloride] and `CN(C)c1cc(N[C@H]2CC[C@@H](CNC(=O)Nc3cccc(Cl)c3Cl)CC2)nc2ccccc12` [Example 3191, 1-(2,3-Dichloro-phenyl)-3-[cis-4-(4-dimethylamino-quinolin-2-ylamino)-cyclohexylmethyl]-urea hydrochloride] fall in the same range of IC50: 50 to 200 nM for the first, 50 to 200 nM for the second.

Compared with `CN(C)c1nc(N[C@H]2CC[C@@H](NC(=O)c3ccc(F)c(F)c3)CC2)nc2c1CCCC2` [Example 3192, N-[cis-4-(4-dimethylamino-5,6,7,8-tetrahydro-quinazolin-2-ylamino)-cyclohexyl]-3,4-difluoro-benzamide hydrochloride], `CN(C)c1nc(N[C@H]2CC[C@@H](CNC(=O)c3ccc(F)c(F)c3)CC2)nc2c1CCCC2` [Example 3195, N-[cis-4-(4-Dimethylamino-5,6,7,8-tetrahydro-quinazolin-2-ylamino)-cyclohexylmethyl]-3,4-difluoro-benzamide hydrochloride] is higher in IC50: under 50 nM for the first, 50 to 200 nM for the second. The first is the more potent here.

`CN(C)c1nc(N[C@H]2CC[C@@H](NC(=O)c3csc([N+](=O)[O-])c3)CC2)nc2c1CCCC2` [Example 3193, 5-Nitro-thiophene-3-carboxylic acid [cis-4-(4-dimethylamino-5,6,7,8-tetrahydro-quinazolin-2-ylamino)-cyclohexyl]-amide hydrochloride] and `CN(C)c1nc(N[C@H]2CC[C@@H](NC(=O)c3cc([N+](=O)[O-])cn3C)CC2)nc2c1CCCC2` [Example 3194, 1-Methyl-4-nitro-1H-pyrrole-2-carboxylic acid [cis-4-(4-dimethylamino-5,6,7,8-tetrahydro-quinazolin-2-ylamino)-cyclohexyl]-amide hydrochloride] cannot be ordered by IC50: under 50 nM for the first, under 50 nM for the second.

First: CN(C)c1nc(N[C@H]2CC[C@@H](CNC(=O)Nc3cccc(Cl)c3Cl)CC2)nc2c1CCCC2 [Example 3196, 1-(2,3-Dichloro-phenyl)-3-[cis-4-(4-dimethylamino-5,6,7,8-tetrahydro-quinazolin-2-ylamino)-cyclohexylmethyl]-urea hydrochloride]
Second: CN(C)c1ccnc(N[C@H]2CC[C@@H](NC(=O)c3ccc(F)c(Cl)c3)CC2)n1 [Example 3206, 3-Chloro-N-[cis-4-(4-dimethylamino-pyrimidin-2-ylamino)-cyclohexyl]-4-fluoro-benzamide hydrochloride]
The IC50 of the first is higher: 50 to 200 nM for the first, under 50 nM for the second. The second is the more potent here.

First: CN(C)c1ccnc(N[C@H]2CC[C@@H](NC(=O)c3ccc(F)c(F)c3)CC2)n1 [Example 3197, N-[cis-4-(4-Dimethylamino-pyrimidin-2-ylamino)-cyclohexyl]-3,4-difluoro-benzamide hydrochloride]
Second: CN(C)c1ccnc(N[C@H]2CC[C@@H](NC(=O)c3ccc(Cl)c(F)c3)CC2)n1 [Example 3207, 4-Chloro-N-[cis-4-(4-dimethylamino-pyrimidin-2-ylamino)-cyclohexyl]-3-fluoro-benzamide hydrochloride]
The IC50 of the first is higher: 50 to 200 nM for the first, under 50 nM for the second. The second is the more potent here.

Compared with `CN(C)c1ccnc(N[C@H]2CC[C@@H](NC(=O)c3ccc(-c4ccc(Cl)cc4)o3)CC2)n1` [Example 3199, 5-(4-Chloro-phenyl)-furan-2-carboxylic acid [cis-4-(4-dimethylamino-pyrimidin-2-ylamino)-cyclohexyl]-amide hydrochloride], `CN(C)c1ccnc(N[C@H]2CC[C@@H](NC(=O)c3ccc(-c4ccc(F)cc4)cc3)CC2)n1` [Example 3200, 4′-Fluoro-biphenyl-4-carboxylic acid [cis-4-(4-dimethylamino-pyrimidin-2-ylamino)-cyclohexyl]-amide hydrochloride] is higher in IC50: under 50 nM for the first, over 200 nM for the second.

Going from `CN(C)c1ccnc(N[C@H]2CC[C@@H](NC(=O)c3cccnc3Oc3ccc(F)cc3)CC2)n1` [Example 3201, N-[cis-4-(4-Dimethylamino-pyrimidin-2-ylamino)-cyclohexyl]-2-(4-fluoro-phenoxy)-nicotinamide hydrochloride] to `CN(C)c1ccnc(N[C@H]2CC[C@@H](NC(=O)c3ccccn3)CC2)n1` [Example 3208, Pyridine-2-carboxylic acid [cis-4-(4-dimethylamino-pyrimidin-2-ylamino)-cyclohexyl]-amide hydrochloride], the IC50 rises from under 50 nM to over 200 nM.

`CCN(CC(=O)N[C@H]1CC[C@@H](Nc2nccc(N(C)C)n2)CC1)c1ccccc1` [Example 3202, N-[cis-4-(4-Dimethylamino-pyrimidin-2-ylamino)-cyclohexyl]-C-(ethyl-phenyl-amino)-acetamide dihydrochloride] and `CCN(CC(=O)N[C@H]1CC[C@@H](Nc2nccc(N(C)C)n2)CC1)c1ccc(Cl)cc1` [Example 3203, C-[cis-(4-Chloro-phenyl)-ethyl-amino]-N-[4-(4-dimethylamino-pyrimidin-2-ylamino)-cyclohexyl]-acetamide dihydrochloride] cannot be ordered by IC50: under 50 nM for the first, under 50 nM for the second.

`CN(C)c1ccnc(N[C@H]2CC[C@@H](NC(=O)Cc3ccc(F)c(F)c3)CC2)n1` [Example 3204, 2-(3,4-Difluoro-phenyl)-N-[cis-4-(4-dimethylamino-pyrimidin-2-ylamino)-cyclohexyl]-acetamide hydrochloride] and `CN(C)c1ccnc(N[C@H]2CC[C@@H](NC(=O)c3cc(F)cc(F)c3)CC2)n1` [Example 3205, N-[cis-4-(4-Dimethylamino-pyrimidin-2-ylamino)-cyclohexyl]-3,5-difluoro-benzamide hydrochloride] fall in the same range of IC50: 50 to 200 nM for the first, 50 to 200 nM for the second.

`CN(C)c1ccnc(N[C@H]2CC[C@@H](NC(=O)c3cccnc3)CC2)n1` [Example 3209, N-[cis-4-(4-Dimethylamino-pyrimidin-2-ylamino)-cyclohexyl]-nicotinamide dihydrochloride] and `CN(C)c1ccnc(N[C@H]2CC[C@@H](NC(=O)c3ccncc3)CC2)n1` [Example 3210, N-[cis-4-(4-Dimethylamino-pyrimidin-2-ylamino)-cyclohexyl]-isonicotinamide dihydrochloride] cannot be ordered by IC50: over 200 nM for the first, over 200 nM for the second.

First: CN(C)c1ccnc(N[C@H]2CC[C@@H](NC(=O)c3cncc(Br)c3)CC2)n1 [Example 3211, 5-Bromo-N-[cis-4-(4-dimethylamino-pyrimidin-2-ylamino)-cyclohexyl]-nicotinamide hydrochloride]
Second: CN(C)c1ccnc(N[C@H]2CC[C@@H](NC(=O)c3ccc(C(F)(F)F)nc3)CC2)n1 [Example 3212, N-[cis-4-(4-Dimethylamino-pyrimidin-2-ylamino)-cyclohexyl]-6-trifluoromethyl-nicotinamide hydrochloride]
The IC50 of the first is lower: under 50 nM for the first, over 200 nM for the second. The first is the more potent here.
